According to ChEMBL document CHEMBL5463729, “Data for DCP probe BAY 1753011” (2023):

Key:
Conditions in all cases: Compound concentration 10.0 uM
[1] = molecular target: Serine/threonine-protein kinase WNK3 (Homo sapiens) (UniProt Q9BYP7); experiment: Inhibition of WNK3(h) at 10.0 µM in the Eurofins Kinase panel
[2] = molecular target: Serine/threonine-protein kinase Nek9 (Homo sapiens) (UniProt Q8TD19); experiment: Inhibition of NEK9(h) at 10.0 µM in the Eurofins Kinase panel
[3] = molecular target: Inhibitor of nuclear factor kappa-B kinase subunit epsilon (Homo sapiens) (UniProt Q14164); experiment: Inhibition of IKKepsilon(h) at 10.0 µM in the Eurofins Kinase panel
[4] = molecular target: Muscarinic acetylcholine receptor M3 (Homo sapiens) (UniProt P20309)
Chain of Muscarinic acetylcholine receptor M3 (Homo sapiens) (P20309 whole entry, looked up): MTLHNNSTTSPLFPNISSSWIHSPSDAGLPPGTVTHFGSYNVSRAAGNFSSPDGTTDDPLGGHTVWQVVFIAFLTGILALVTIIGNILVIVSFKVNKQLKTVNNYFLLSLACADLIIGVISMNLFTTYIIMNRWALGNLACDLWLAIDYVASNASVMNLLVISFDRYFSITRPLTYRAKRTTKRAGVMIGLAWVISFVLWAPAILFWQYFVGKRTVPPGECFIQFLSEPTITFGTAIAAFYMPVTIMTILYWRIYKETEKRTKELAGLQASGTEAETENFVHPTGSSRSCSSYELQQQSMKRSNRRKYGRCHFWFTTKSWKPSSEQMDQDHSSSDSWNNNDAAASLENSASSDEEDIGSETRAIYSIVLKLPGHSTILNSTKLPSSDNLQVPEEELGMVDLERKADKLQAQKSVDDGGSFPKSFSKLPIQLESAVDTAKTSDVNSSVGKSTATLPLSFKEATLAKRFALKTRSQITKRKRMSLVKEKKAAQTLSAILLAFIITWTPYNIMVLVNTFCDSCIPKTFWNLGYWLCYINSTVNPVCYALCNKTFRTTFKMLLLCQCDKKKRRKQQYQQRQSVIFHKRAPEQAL

[5] = molecular target: Mitogen-activated protein kinase 1 (Homo sapiens) (UniProt P28482); experiment: Inhibition of MAPK1(h) at 10.0 µM in the Eurofins Kinase panel
[6] = molecular target: Dual specificity protein kinase TTK (Homo sapiens) (UniProt P33981); experiment: Inhibition of TTK(h) at 10.0 µM in the Eurofins Kinase panel
[7] = molecular target: cAMP-dependent protein kinase catalytic subunit PRKX (Homo sapiens) (UniProt P51817); experiment: Inhibition of PrKX(h) at 10.0 µM in the Eurofins Kinase panel
[8] = molecular target: Tyrosine-protein kinase Yes (Homo sapiens) (UniProt P07947); experiment: Inhibition of Yes(h) at 10.0 µM in the Eurofins Kinase panel
[9] = molecular target: Protein-tyrosine kinase 2-beta (Homo sapiens) (UniProt Q14289); experiment: Inhibition of Pyk2(h) at 10.0 µM in the Eurofins Kinase panel
[10] = molecular target: Phosphorylase b kinase gamma catalytic chain, testis/liver isoform (Homo sapiens) (UniProt P15735); experiment: Inhibition of PhKgamma2(h) at 10.0 µM in the Eurofins Kinase panel
[11] = molecular target: Serine/threonine-protein kinase 17B (Homo sapiens) (UniProt O94768); experiment: Inhibition of DRAK2(h) at 10.0 µM in the Eurofins Kinase panel
[12] = molecular target: Mu-type opioid receptor (Homo sapiens) (UniProt P35372)
Chain of Mu-type opioid receptor (Homo sapiens) (P35372 whole entry): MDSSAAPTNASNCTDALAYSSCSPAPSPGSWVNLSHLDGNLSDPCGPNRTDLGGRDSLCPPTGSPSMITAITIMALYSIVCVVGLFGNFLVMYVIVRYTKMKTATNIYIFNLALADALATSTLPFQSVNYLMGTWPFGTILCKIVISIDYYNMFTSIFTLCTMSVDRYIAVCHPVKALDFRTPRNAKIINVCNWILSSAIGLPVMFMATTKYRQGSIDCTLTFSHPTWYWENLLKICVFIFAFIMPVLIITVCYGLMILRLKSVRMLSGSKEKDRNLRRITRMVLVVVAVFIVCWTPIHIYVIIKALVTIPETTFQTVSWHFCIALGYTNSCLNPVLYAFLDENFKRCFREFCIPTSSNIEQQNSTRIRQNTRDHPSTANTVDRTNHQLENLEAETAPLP

[13] = molecular target: Serine/threonine-protein kinase Sgk3 (Homo sapiens) (UniProt Q96BR1); experiment: Inhibition of SGK3(h) at 10.0 µM in the Eurofins Kinase panel
[14] = molecular target: Serine/threonine-protein kinase TAO3 (Homo sapiens) (UniProt Q9H2K8); experiment: Inhibition of TAO3(h) at 10.0 µM in the Eurofins Kinase panel
[15] = molecular target: Serine/threonine-protein kinase B-raf (Homo sapiens) (UniProt P15056); experiment: Inhibition of B-Raf(h) at 10.0 µM in the Eurofins Kinase panel
[16] = molecular target: NT-3 growth factor receptor (Homo sapiens) (UniProt Q16288); experiment: Inhibition of TrkC(h) at 10.0 µM in the Eurofins Kinase panel
[17] = molecular target: Testis-specific serine/threonine-protein kinase 1 (Homo sapiens) (UniProt Q9BXA7); experiment: Inhibition of TSSK1(h) at 10.0 µM in the Eurofins Kinase panel
[18] = molecular target: Beta-1 adrenergic receptor (Homo sapiens) (UniProt P08588)
[19] = molecular target: Mitogen-activated protein kinase kinase kinase 7 (Homo sapiens) (UniProt O43318); experiment: Inhibition of TAK1(h) at 10.0 µM in the Eurofins Kinase panel
[20] = molecular target: Cytoplasmic tyrosine-protein kinase BMX (Homo sapiens) (UniProt P51813); experiment: Inhibition of Bmx(h) at 10.0 µM in the Eurofins Kinase panel
[21] = molecular target: Cyclin-dependent kinase 1/cyclin B1 (Homo sapiens) (UniProt P06493+P14635); experiment: Inhibition of CDK1/cyclinB(h) at 10.0 µM in the Eurofins Kinase panel; format: protein-complex assay
[22] = molecular target: Serine/threonine-protein kinase VRK1 (Homo sapiens) (UniProt Q99986); experiment: Inhibition of VRK1(h) at 10.0 µM in the Eurofins Kinase panel
[23] = molecular target: Focal adhesion kinase 1 (Homo sapiens) (UniProt Q05397); experiment: Inhibition of FAK(h) at 10.0 µM in the Eurofins Kinase panel
Chain of Focal adhesion kinase 1 (Homo sapiens) (Q05397 2-1052 limits assumed): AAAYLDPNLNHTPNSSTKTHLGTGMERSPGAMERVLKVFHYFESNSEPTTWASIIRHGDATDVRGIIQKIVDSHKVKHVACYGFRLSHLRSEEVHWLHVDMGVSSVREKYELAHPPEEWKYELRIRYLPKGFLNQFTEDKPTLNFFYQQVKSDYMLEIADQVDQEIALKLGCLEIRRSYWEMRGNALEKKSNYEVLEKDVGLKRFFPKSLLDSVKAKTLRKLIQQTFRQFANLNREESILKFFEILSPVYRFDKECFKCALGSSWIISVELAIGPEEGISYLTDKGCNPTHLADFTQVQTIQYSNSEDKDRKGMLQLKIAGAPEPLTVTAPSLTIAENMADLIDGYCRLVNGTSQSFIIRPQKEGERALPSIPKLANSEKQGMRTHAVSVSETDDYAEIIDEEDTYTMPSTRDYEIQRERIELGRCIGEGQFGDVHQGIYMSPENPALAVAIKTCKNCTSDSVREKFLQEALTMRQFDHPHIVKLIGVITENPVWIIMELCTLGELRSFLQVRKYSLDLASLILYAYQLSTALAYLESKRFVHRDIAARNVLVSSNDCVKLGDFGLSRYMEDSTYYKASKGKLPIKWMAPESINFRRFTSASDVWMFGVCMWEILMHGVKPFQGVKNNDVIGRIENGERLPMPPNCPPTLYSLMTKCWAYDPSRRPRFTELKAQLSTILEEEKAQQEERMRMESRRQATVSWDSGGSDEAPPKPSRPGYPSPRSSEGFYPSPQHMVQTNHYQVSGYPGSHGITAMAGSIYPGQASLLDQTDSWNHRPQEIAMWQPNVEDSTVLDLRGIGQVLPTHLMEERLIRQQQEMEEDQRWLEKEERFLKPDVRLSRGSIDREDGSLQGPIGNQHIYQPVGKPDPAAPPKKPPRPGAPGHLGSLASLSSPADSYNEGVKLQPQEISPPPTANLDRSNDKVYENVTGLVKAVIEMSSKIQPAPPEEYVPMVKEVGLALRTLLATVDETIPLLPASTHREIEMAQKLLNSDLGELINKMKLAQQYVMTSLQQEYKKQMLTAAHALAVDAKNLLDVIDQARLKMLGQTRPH

[24] = molecular target: Muscarinic acetylcholine receptor M3 (Homo sapiens) (UniProt P20309); remark: listed apart in the source
[25] = molecular target: MAP/microtubule affinity-regulating kinase 4 (Homo sapiens) (UniProt Q96L34); experiment: Inhibition of MARK4(h) at 10.0 µM in the Eurofins Kinase panel
[26] = molecular target: Serine/threonine-protein kinase/endoribonuclease IRE1 (Homo sapiens) (UniProt O75460); experiment: Inhibition of IRE1(h) at 10.0 µM in the Eurofins Kinase panel
[27] = molecular target: Serine/threonine-protein kinase SBK1 (Homo sapiens) (UniProt Q52WX2); experiment: Inhibition of SBK1(h) at 10.0 µM in the Eurofins Kinase panel
Chain of Serine/threonine-protein kinase SBK1 (Homo sapiens) (Q52WX2 whole entry): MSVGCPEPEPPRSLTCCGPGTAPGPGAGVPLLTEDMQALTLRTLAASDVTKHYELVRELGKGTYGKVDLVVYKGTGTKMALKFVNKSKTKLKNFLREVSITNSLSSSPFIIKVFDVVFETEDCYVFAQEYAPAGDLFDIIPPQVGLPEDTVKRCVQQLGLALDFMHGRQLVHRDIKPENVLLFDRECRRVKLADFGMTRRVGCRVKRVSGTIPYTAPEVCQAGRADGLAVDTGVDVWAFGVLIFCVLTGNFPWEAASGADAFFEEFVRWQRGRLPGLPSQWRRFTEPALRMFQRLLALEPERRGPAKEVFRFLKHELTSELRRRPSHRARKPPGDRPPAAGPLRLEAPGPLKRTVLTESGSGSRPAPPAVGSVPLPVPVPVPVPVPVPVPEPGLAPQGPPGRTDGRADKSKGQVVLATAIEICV

[28] = molecular target: cAMP-dependent protein kinase (PKA) (Homo sapiens) (UniProt P22694+P17612+P22612); experiment: Inhibition of PKA(h) at 10.0 µM in the Eurofins Kinase panel; format: protein assay
[29] = molecular target: Ribosomal protein S6 kinase alpha-5 (Homo sapiens) (UniProt O75582); experiment: Inhibition of MSK1(h) at 10.0 µM in the Eurofins Kinase panel
[30] = molecular target: Ephrin type-A receptor 8 (Homo sapiens) (UniProt P29322); experiment: Inhibition of EphA8(h) at 10.0 µM in the Eurofins Kinase panel
[31] = molecular target: Histamine H1 receptor (Homo sapiens) (UniProt P35367)
Chain of Histamine H1 receptor (Homo sapiens) (P35367 whole entry, canonical isoform): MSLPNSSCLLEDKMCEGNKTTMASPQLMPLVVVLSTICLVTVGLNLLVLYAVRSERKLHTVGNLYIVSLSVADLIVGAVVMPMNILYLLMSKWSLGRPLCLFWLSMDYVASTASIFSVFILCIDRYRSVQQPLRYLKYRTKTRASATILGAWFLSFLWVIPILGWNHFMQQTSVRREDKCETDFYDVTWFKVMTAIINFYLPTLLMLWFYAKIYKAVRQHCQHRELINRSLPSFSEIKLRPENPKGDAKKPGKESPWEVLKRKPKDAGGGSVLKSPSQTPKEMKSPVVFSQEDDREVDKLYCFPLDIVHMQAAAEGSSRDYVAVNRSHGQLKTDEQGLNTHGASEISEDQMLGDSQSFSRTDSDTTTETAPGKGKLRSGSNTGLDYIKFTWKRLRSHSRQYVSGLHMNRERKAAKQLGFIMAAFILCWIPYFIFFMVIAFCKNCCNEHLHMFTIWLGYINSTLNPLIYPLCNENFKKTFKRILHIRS

[32] = molecular target: Casein kinase I isoform gamma-2 (Homo sapiens) (UniProt P78368); experiment: Inhibition of CK1gamma2(h) at 10.0 µM in the Eurofins Kinase panel
[33] = molecular target: Death-associated protein kinase 2 (Homo sapiens) (UniProt Q9UIK4); experiment: Inhibition of DAPK2(h) at 10.0 µM in the Eurofins Kinase panel
Chain of Death-associated protein kinase 2 (Homo sapiens) (Q9UIK4 whole entry, looked up): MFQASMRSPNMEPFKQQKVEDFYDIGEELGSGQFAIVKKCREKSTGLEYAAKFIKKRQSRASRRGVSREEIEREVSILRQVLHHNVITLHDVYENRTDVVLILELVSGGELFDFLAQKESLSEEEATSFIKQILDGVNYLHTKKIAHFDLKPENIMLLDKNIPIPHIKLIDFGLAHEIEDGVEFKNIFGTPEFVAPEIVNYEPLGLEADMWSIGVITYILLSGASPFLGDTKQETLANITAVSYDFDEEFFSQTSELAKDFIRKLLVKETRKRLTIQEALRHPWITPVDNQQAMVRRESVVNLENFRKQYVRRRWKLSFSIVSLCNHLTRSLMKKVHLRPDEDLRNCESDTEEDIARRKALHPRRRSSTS

[34] = molecular target: TGF-beta receptor type-2 (Homo sapiens) (UniProt P37173); experiment: Inhibition of TGFBR2(h) at 10.0 µM in the Eurofins Kinase panel
Chain of TGF-beta receptor type-2 (Homo sapiens) (P37173 whole entry): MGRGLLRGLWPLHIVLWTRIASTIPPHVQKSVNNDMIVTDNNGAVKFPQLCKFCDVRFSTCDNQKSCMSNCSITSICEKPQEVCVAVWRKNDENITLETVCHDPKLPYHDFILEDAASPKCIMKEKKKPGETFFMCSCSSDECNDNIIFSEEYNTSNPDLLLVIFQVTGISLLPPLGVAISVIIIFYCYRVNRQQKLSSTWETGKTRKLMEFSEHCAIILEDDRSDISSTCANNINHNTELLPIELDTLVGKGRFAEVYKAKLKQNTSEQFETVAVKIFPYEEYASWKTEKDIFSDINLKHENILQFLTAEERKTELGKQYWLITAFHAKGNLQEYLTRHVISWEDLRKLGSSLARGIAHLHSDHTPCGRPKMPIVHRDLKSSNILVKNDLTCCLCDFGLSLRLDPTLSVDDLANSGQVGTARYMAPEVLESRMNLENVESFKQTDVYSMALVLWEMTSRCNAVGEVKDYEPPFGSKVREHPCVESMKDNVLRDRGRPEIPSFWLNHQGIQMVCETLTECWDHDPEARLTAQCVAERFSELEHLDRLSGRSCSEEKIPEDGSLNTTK

[35] = molecular target: PI3K p110 beta/p85 alpha (Homo sapiens) (UniProt P27986+P42338); experiment: Inhibition of PI3 Kinase (p110b/p85a)(h) at 10.0 µM in the Eurofins Kinase panel; format: protein-complex assay
[36] = molecular target: Calcium/calmodulin-dependent protein kinase kinase 2 (Homo sapiens) (UniProt Q96RR4); experiment: Inhibition of CaMKK2(h) at 10.0 µM in the Eurofins Kinase panel
Chain of Calcium/calmodulin-dependent protein kinase kinase 2 (Homo sapiens) (Q96RR4 2-588 limits assumed): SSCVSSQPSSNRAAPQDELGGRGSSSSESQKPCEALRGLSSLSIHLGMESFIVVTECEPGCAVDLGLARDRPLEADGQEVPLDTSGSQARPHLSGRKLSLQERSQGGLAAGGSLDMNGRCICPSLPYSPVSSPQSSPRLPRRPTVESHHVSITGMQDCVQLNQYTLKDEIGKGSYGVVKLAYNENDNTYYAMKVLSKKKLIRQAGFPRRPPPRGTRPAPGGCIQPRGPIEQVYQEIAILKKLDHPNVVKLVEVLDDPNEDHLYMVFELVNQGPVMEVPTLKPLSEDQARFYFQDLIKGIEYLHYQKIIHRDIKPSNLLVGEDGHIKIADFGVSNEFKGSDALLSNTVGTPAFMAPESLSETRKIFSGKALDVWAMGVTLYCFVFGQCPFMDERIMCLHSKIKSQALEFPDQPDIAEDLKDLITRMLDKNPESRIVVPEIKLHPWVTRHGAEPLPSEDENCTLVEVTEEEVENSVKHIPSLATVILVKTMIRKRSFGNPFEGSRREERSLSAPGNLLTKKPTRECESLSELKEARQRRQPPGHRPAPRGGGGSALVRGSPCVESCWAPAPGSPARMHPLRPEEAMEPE

[37] = molecular target: Testis-specific serine/threonine-protein kinase 2 (Homo sapiens) (UniProt Q96PF2); experiment: Inhibition of TSSK2(h) at 10.0 µM in the Eurofins Kinase panel
[38] = molecular target: Mitogen-activated protein kinase 12 (Homo sapiens) (UniProt P53778); experiment: Inhibition of SAPK3(h) at 10.0 µM in the Eurofins Kinase panel
Chain of Mitogen-activated protein kinase 12 (Homo sapiens) (P53778 whole entry): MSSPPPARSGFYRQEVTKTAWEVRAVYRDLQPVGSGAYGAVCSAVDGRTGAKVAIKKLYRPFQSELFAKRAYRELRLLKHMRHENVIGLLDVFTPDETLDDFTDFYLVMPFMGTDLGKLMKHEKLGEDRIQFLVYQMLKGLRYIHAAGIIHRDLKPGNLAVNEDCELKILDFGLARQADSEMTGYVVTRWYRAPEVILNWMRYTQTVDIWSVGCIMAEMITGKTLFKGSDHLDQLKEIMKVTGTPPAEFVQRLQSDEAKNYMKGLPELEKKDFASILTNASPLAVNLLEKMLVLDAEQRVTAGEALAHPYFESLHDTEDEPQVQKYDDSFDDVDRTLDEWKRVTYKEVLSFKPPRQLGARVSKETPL

| Structure (SMILES) | inhibition [1] [%] | inhibition [2] [%] | inhibition [3] [%] | inhibition [4] [%] | inhibition [5] [%] | inhibition [6] [%] | inhibition [7] [%] | inhibition [8] [%] | inhibition [9] [%] | inhibition [10] [%] | inhibition [11] [%] | inhibition [12] [%] | inhibition [13] [%] | inhibition [14] [%] | inhibition [15] [%] | inhibition [16] [%] | inhibition [17] [%] | inhibition [18] [%] | inhibition [19] [%] | inhibition [20] [%] | further results |
| --- | --- | --- | --- | --- | --- | --- | --- | --- | --- | --- | --- | --- | --- | --- | --- | --- | --- | --- | --- | --- | --- |
| O=c1n(Cc2cncn2-c2cccc(Cl)c2)nc(-c2ccc(Cl)cc2)n1C[C@H](O)C(F)(F)F | -2.58 | 9.43 | 0.02 | -4.25 | -0.83 | -7.11 | 6.15 | -2.72 | 3.57 | -3.49 | -2.64 | 6.13 | -5.09 | 3.07 | -2.97 | 0.07 | 7.23 | 5 | -1.55 | -7.7 | inhibition [21]: -8.48%; inhibition [22]: 15.7%; inhibition [23]: -5.35%; inhibition [24]: 4%; inhibition [25]: 2.56%; inhibition [26]: 19.2%; inhibition [27]: 0.97%; inhibition [28]: 2.56%; inhibition [29]: -0.53%; inhibition [30]: 3.67%; inhibition [31]: 9%; inhibition [32]: -1.25%; inhibition [33]: 11.7%; inhibition [34]: 8.26%; inhibition [35]: -2.42%; inhibition [36]: -6.67%; inhibition [37]: 2.9%; inhibition [38]: -3.96% |
| C[C@H](O)c1nc(Cn2nc(-c3ccc(Cl)cc3)n(C[C@H](O)C(F)(F)F)c2=O)nn1-c1cccc(Cl)c1 [PECAVAPTAN] | -3.44 | 7.88 | 3.03 | 28.2 | 7.33 | 2.07 | 1.42 | -6.93 | -1.95 | 0.74 | 2.39 | 14.4 | -6.13 | 5.55 | -4.03 | -6.4 | -5.64 | 5 | -6.39 | -9.46 | inhibition [21]: -5.4%; inhibition [22]: 12.3%; inhibition [23]: -3.02%; inhibition [24]: 8%; inhibition [25]: 2.7%; inhibition [26]: 5.58%; inhibition [27]: -2.61%; inhibition [28]: -3.46%; inhibition [29]: -5.91%; inhibition [30]: 4.55%; inhibition [31]: -1%; inhibition [32]: 4.6%; inhibition [33]: -2.55%; inhibition [34]: 8.85%; inhibition [35]: -1.96%; inhibition [36]: -6.9%; inhibition [37]: -2.02%; inhibition [38]: -0.09% |
